The source of these data is ChEMBL document CHEMBL1201862, “PubChem BioAssay data set” (2004).

The source made the active and inactive calls. Where only a bound is given, the exact number is not on record here.

A short description of experiment [1]: P. falciparum late gametocyte killing, dose response, luminescence (AID 1117278).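 Further: gametocytes exposed to compound for 24 hours.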 It is filed as functional, cell-based.
A short description of experiment [2]: Jurkat T cell cytotoxicity, dose response, cytotoxicity control for P. falciparum gametocyte viability project, luminescence (AID 1117277).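 Further: potency reflects loss of cellular ATP meaning fewer viable cells.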 It is filed as functional, cell-based.
Experiment [3] is described as follows: cells. It is filed as functional, cell-based.
Experiment [4] in a line: cells. It is filed as functional, cell-based. The source holds these as a separate data set.
Experiment [5] addresses T1, Probable nicotinate-nucleotide adenylyltransferase (Staphylococcus aureus (strain N315), UniProt P65502). It is filed as functional, Staphylococcus aureus subsp. aureus N315. As to conditions: read-out: IC50_Mean.
Experiment [6] concerns the target T1, Probable nicotinate-nucleotide adenylyltransferase. It is filed as functional, Staphylococcus aureus subsp. aureus N315.
Experiment [7] has as its target Paired box protein Pax-8 (Homo sapiens, UniProt Q06710). The experiment is described as follows: inhibitors of PAX8-driven TPO luciferase reporter, dose response, RMG-I cells, cherry-pick (AID 687027).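 Further: luciferase reporter driven by Pax8 target thyroperoxidase promoter measured by SteadyGlo luminescence.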 It counts as functional, cell-based.
Experiment [8] can be described thus: CEM21 lymphoblast cell cytotoxicity, dose response, cytotoxicity control for viral fusion inhibitor project, CellTiter-Glo luminescence, cherry-picked (AID 652042).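 Further: potency for signal decrease meaning cytotoxicity.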 It counts as functional, cell-based.
A short description of experiment [9]: off-target signal loss in HeLa-CEM21 co-culture – HeLa F-luc CTL cells, cherry-picked, counter-screen for HIV-1 Env fusion inhibitor project, dose response (AID 652040).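 Further: potency for signal decrease marking cytotoxic or nonspecific inhibition.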 It is filed as functional, cell-based.
Experiment [10] is described as follows: non-specific cell cytotoxicity, dose response, cytotoxicity control for PAX8 inhibitor project, plate reader, dry powder samples (AID 743021). It counts as functional, cell-based.
Experiment [11] in a line: inhibitors of HIV Env-driven cell fusion, dose response, cherry-pick (AID 652057). It is filed as functional, cell-based.
Experiment [12] in a line: inhibitors of clade B AD8 Env fusion, dose response, cell-based, cherry-pick (AID 652062).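 Further: luciferase signal from cell-cell fusion driven by HIV-1 clade B AD8 Env; potency is for inhibitors of fusion seen as a drop in luminescence.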 It counts as functional.
Experiment [13] in a line: ZM109 Env clade C HIV-1 fusion inhibitors, dose response, HeLa effector, CEM target cells, luciferase, cherry-pick (AID 652058). It counts as functional, cell-based.
The nature of experiment [14]: HEK293T cytotoxicity, dose response, cytotoxicity control for miR-122 modulator project, cell-based, inhibitor set, cherry-pick, set 2 (AID 720697). It is filed as functional.
Experiment [15] can be described thus: P. falciparum Dd2 growth inhibitors, dose response, SYBR Green, dry powder samples (AID 1159566).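 Further: potency for growth inhibition with lower SYBR green DNA signal.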 It counts as functional, cell-based.
Experiment [16] can be described thus: P. falciparum Dd2 growth inhibitors, dose response, SYBR Green, cherry-picked samples (AID 1159567). It counts as functional, cell-based.
Experiment [17] in a line: P. falciparum 3D7-ScDHODH growth inhibitors, dose response, SYBR Green, dry powder samples (AID 1159570).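 Further: parasite growth measured after 72 hours of compound exposure.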 It is filed as functional, cell-based.
Experiment [18] in a line: P. falciparum ATP4 D1247Y mutant growth inhibitors, dose response, NITD609-resistant line, SYBR Green, dry powder (AID 1159571).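 Further: parasites synchronized at ring stage by sorbitol before testing.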 It is filed as functional, cell-based.
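Wherever EC50 is given: agonist potency from rise in intracellular calcium fluorescence.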
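Wherever IC50 Mean is given: confirmatory dose-response retesting of NadD inhibitor hits first found in an ultra-high-throughput screen.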

T1 sequence (P65502 whole entry): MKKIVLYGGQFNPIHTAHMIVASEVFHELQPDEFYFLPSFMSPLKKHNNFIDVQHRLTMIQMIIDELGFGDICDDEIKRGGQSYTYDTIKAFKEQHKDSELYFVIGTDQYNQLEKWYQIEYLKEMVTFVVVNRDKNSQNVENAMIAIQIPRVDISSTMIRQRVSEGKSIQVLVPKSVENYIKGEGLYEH
Chain of Paired box protein Pax-8 (Q06710 whole entry, the tested form may be a part): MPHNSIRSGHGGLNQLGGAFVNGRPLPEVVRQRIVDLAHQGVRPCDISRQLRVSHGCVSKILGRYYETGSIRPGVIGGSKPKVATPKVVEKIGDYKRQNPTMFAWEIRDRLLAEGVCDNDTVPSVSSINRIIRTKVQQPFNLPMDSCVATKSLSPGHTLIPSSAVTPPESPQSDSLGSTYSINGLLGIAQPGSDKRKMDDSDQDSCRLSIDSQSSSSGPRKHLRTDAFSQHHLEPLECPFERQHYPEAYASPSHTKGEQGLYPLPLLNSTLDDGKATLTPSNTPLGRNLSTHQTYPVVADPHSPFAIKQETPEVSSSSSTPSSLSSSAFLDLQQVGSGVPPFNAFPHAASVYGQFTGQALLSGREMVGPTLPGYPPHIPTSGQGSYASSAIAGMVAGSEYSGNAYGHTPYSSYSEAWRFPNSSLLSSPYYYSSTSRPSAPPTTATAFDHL

Take `O=C(Nc1nc2ccc([N+](=O)[O-])cc2s1)c1ccco1`: the IC50 is > 109 µM (inactive) in experiment [1] and > 83.2 µM (inactive) in experiment [2].
As to `O=C(NCCc1ccccc1)Oc1ccc(Cl)cc1`, the IC50 in experiment [3] is > 29.9 µM (inactive). Also, the EC50 in experiment [4] is > 29.9 µM (inactive).
For `CCSc1n[nH]c2nc3nc4c(C)cccc4c-3nn12`, the IC50 in experiment [1] is > 109 µM (inactive); in experiment [2], > 83.3 µM (inactive).
For the molecule `O=C(N/N=C/C=C\c1ccccc1[N+](=O)[O-])c1cc(-c2ccc3ccccc3c2)[nH]n1`, the results for the IC50 in experiment [5] and in [6] were 74.3 µM (active) and 22.5 µM (active), respectively.
For `CC(=NNc1ccc2ccccc2n1)c1ccccn1`, the AC50 was 2.27 µM (active) in experiment [7]; 0.399 µM (active) in experiment [8]; 8.41 µM (active) in experiment [9]; 59.5 µM (active) in [10]; 3.13 µM (active) in experiment [11]; 5 µM (active) in experiment [12]. The AC50 in experiment [13] was 10.7 µM (active).
With `CNC(=O)C[C@H]1CC[C@@H]2[C@H](COc3ccc(NC(=O)C(C)C)cc3C(=O)N2C)O1`, the AC50 in experiment [14] is 9.62 µM (active).
For the molecule `C[C@@H]1CN([C@H](C)CO)C(=O)c2cc(C#CCc3ccccc3)cnc2O[C@H]1CN(C)C(=O)C1CCC1`, the AC50 in experiment [15] was 1.88 µM (active); in experiment [16] it was 2.18 µM (active); in [17], 2.1 µM (active); in experiment [18], 1.54 µM (active).
